# Source: PubChem BioAssay (NCI)
#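 1) Cells in 96-well plates. 2) Compound, 48 h, 5 concentrations. 3) Linear interpolation between surrounding doses. 4) Unreached endpoint = highest concentration. GI50 = concentration required for 50% inhibition of growth. TGI is the concentration that stops growth completely.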
# Experiments:
# Experiment in all cases: NCI-60 cell line screen, 48 h
# MDA-MB-435 = test system: MDA-MB-435
# UACC-257 melanoma = test system: UACC-257 melanoma
# NCI-H23 lung = test system: NCI-H23 lung
# MOLT-4 leukemia = test system: MOLT-4 leukemia
# SK-MEL-5 melanoma = test system: SK-MEL-5 melanoma
# IGROV1 ovarian = test system: IGROV1 ovarian
# CCRF-CEM leukemia = test system: CCRF-CEM leukemia
# RXF 393 renal = test system: RXF 393 renal
# HS 578T breast = test system: HS 578T breast
# HCC-2998 colon = test system: HCC-2998 colon
# SK-MEL-28 melanoma = test system: SK-MEL-28 melanoma
# A498 renal = test system: A498 renal
# MCF7 breast = test system: MCF7 breast
# CAKI-1 renal = test system: CAKI-1 renal
# SK-MEL-2 melanoma = test system: SK-MEL-2 melanoma
# EKVX NSCLC = test system: EKVX NSCLC
# HL-60(TB) leukemia = test system: HL-60(TB) leukemia
# KM12 colon = test system: KM12 colon
# PC-3 prostate = test system: PC-3 prostate
# SF-539 CNS = test system: SF-539 CNS
# M14 melanoma = test system: M14 melanoma
# OVCAR-4 ovarian = test system: OVCAR-4 ovarian
# TK-10 renal = test system: TK-10 renal
# U251 CNS = test system: U251 CNS
# 786-0 renal = test system: 786-0 renal
# HOP-92 NSCLC = test system: HOP-92 NSCLC
# MDA-MB-231 breast = test system: MDA-MB-231 breast
# SNB-19 CNS = test system: SNB-19 CNS
# OVCAR-8 ovarian = test system: OVCAR-8 ovarian
# SW-620 colon = test system: SW-620 colon
# HT29 colon = test system: HT29 colon
# LOX IMVI melanoma = test system: LOX IMVI melanoma
# MALME-3M melanoma = test system: MALME-3M melanoma
# UACC-62 melanoma = test system: UACC-62 melanoma
# NCI-H460 lung = test system: NCI-H460 lung
# UO-31 renal = test system: UO-31 renal
# OVCAR-5 ovarian = test system: OVCAR-5 ovarian
# SK-OV-3 ovarian = test system: SK-OV-3 ovarian
# NCI-H226 lung = test system: NCI-H226 lung
# A549 NSCLC = test system: A549 NSCLC
# SF-295 CNS = test system: SF-295 CNS
# K-562 leukemia = test system: K-562 leukemia
# COLO 205 colon = test system: COLO 205 colon
# HOP-62 NSCLC = test system: HOP-62 NSCLC
# ACHN renal = test system: ACHN renal
# T-47D breast = test system: T-47D breast
# SNB-75 CNS = test system: SNB-75 CNS
# BT-549 breast = test system: BT-549 breast
# DU-145 prostate = test system: DU-145 prostate
# SF-268 CNS = test system: SF-268 CNS
# SR leukemia = test system: SR leukemia
# NCI/ADR-RES ovarian = test system: NCI/ADR-RES ovarian
# RPMI-8226 leukemia = test system: RPMI-8226 leukemia
# HCT-116 colon = test system: HCT-116 colon
# HCT-15 colon = test system: HCT-15 colon
# SN12C renal = test system: SN12C renal
# NCI-H522 lung = test system: NCI-H522 lung
compound,measurement,setting,value
CC[C@]12CC(C(=O)OC)=C3Nc4ccccc4[C@@]34CCN(C14)[C@@H]1c3cc4c(cc3O[C@@H]1[C@H]2O)NC1=C(C(=O)OC)C[C@@]2(CC)C3N(CC[C@@]143)C[C@H]1O[C@H]12 (some centres not stated),GI50,MDA-MB-435,370 nM
same,TGI,MDA-MB-435,8770 nM
same,GI50,UACC-257 melanoma,363 nM
same,TGI,UACC-257 melanoma,10200 nM
same,GI50,NCI-H23 lung,632 nM
same,TGI,NCI-H23 lung,> 36200 nM
same,GI50,MOLT-4 leukemia,912 nM
same,TGI,MOLT-4 leukemia,> 50000 nM
same,GI50,SK-MEL-5 melanoma,583 nM
same,TGI,SK-MEL-5 melanoma,1320 nM
same,GI50,IGROV1 ovarian,349 nM
same,TGI,IGROV1 ovarian,> 50000 nM
same,GI50,CCRF-CEM leukemia,590 nM
same,TGI,CCRF-CEM leukemia,> 50000 nM
same,GI50,RXF 393 renal,483 nM
same,TGI,RXF 393 renal,1900 nM
same,GI50,HS 578T breast,337 nM
same,TGI,HS 578T breast,> 50000 nM
same,GI50,HCC-2998 colon,492 nM
same,TGI,HCC-2998 colon,1700 nM
same,GI50,SK-MEL-28 melanoma,974 nM
same,TGI,SK-MEL-28 melanoma,> 50000 nM
same,GI50,A498 renal,193 nM
same,TGI,A498 renal,1160 nM
same,GI50,MCF7 breast,109 nM
same,TGI,MCF7 breast,> 50000 nM
same,GI50,CAKI-1 renal,122 nM
same,TGI,CAKI-1 renal,> 20400 nM
same,GI50,SK-MEL-2 melanoma,537 nM
same,TGI,SK-MEL-2 melanoma,5040 nM
same,GI50,EKVX NSCLC,600 nM
same,TGI,EKVX NSCLC,> 50000 nM
same,GI50,HL-60(TB) leukemia,86.2 nM
same,TGI,HL-60(TB) leukemia,> 50000 nM
same,GI50,KM12 colon,636 nM
same,TGI,KM12 colon,> 50000 nM
same,GI50,PC-3 prostate,403 nM
same,TGI,PC-3 prostate,> 50000 nM
same,GI50,SF-539 CNS,417 nM
same,TGI,SF-539 CNS,> 50000 nM
same,GI50,M14 melanoma,423 nM
same,TGI,M14 melanoma,> 20600 nM
same,GI50,OVCAR-4 ovarian,548 nM
same,TGI,OVCAR-4 ovarian,> 50000 nM
same,GI50,TK-10 renal,130 nM
same,TGI,TK-10 renal,3060 nM
same,GI50,U251 CNS,738 nM
same,TGI,U251 CNS,4720 nM
same,GI50,786-0 renal,274 nM
same,TGI,786-0 renal,> 50000 nM
same,GI50,HOP-92 NSCLC,134 nM
same,TGI,HOP-92 NSCLC,2070 nM
same,GI50,MDA-MB-231 breast,311 nM
same,TGI,MDA-MB-231 breast,> 50000 nM
same,GI50,SNB-19 CNS,443 nM
same,TGI,SNB-19 CNS,> 50000 nM
same,GI50,OVCAR-8 ovarian,480 nM
same,TGI,OVCAR-8 ovarian,> 50000 nM
same,GI50,SW-620 colon,840 nM
same,TGI,SW-620 colon,> 20700 nM
same,GI50,HT29 colon,226 nM
same,TGI,HT29 colon,> 25400 nM
same,GI50,LOX IMVI melanoma,167 nM
same,TGI,LOX IMVI melanoma,721 nM
same,GI50,MALME-3M melanoma,504 nM
same,TGI,MALME-3M melanoma,21000 nM
same,GI50,UACC-62 melanoma,89.5 nM
same,TGI,UACC-62 melanoma,1180 nM
same,GI50,NCI-H460 lung,812 nM
same,TGI,NCI-H460 lung,> 30700 nM
same,GI50,UO-31 renal,148 nM
same,TGI,UO-31 renal,> 50000 nM
same,GI50,OVCAR-5 ovarian,614 nM
same,TGI,OVCAR-5 ovarian,> 50000 nM
same,GI50,SK-OV-3 ovarian,296 nM
same,GI50,NCI-H226 lung,509 nM
same,TGI,NCI-H226 lung,> 11300 nM
same,GI50,A549 NSCLC,510 nM
same,TGI,A549 NSCLC,> 44400 nM
same,GI50,SF-295 CNS,317 nM
same,TGI,SF-295 CNS,> 50000 nM
same,GI50,K-562 leukemia,220 nM
same,TGI,K-562 leukemia,> 50000 nM
same,GI50,COLO 205 colon,278 nM
same,TGI,COLO 205 colon,1010 nM
same,GI50,HOP-62 NSCLC,201 nM
same,TGI,HOP-62 NSCLC,> 50000 nM
same,GI50,ACHN renal,320 nM
same,TGI,ACHN renal,5650 nM
same,GI50,T-47D breast,616 nM
same,TGI,T-47D breast,> 50000 nM
same,GI50,SNB-75 CNS,97.2 nM
same,GI50,BT-549 breast,889 nM
same,TGI,BT-549 breast,8260 nM
same,GI50,DU-145 prostate,1850 nM
same,TGI,DU-145 prostate,> 50000 nM
same,GI50,SF-268 CNS,1270 nM
same,TGI,SF-268 CNS,> 50000 nM
same,GI50,SR leukemia,183 nM
same,TGI,SR leukemia,> 50000 nM
same,GI50,NCI/ADR-RES ovarian,290 nM
same,TGI,NCI/ADR-RES ovarian,> 50000 nM
same,GI50,RPMI-8226 leukemia,185 nM
same,TGI,RPMI-8226 leukemia,1440 nM
same,GI50,HCT-116 colon,367 nM
same,TGI,HCT-116 colon,2840 nM
same,GI50,HCT-15 colon,160 nM
same,TGI,HCT-15 colon,6400 nM
same,GI50,SN12C renal,641 nM
same,TGI,SN12C renal,> 50000 nM
same,GI50,NCI-H522 lung,224 nM
same,TGI,NCI-H522 lung,2930 nM
